Results from PubChem BioAssay (NCI).
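Method: 48-hour compound exposure of cells in 96-well plates, five concentrations, linear interpolation of endpoints. GI50 = concentration required for 50% inhibition of growth. TGI: concentration producing complete growth inhibition.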

Tests used:
Assay in all cases: DTP human tumour cell line panel, 48 h
[1] = test system: OVCAR-8 ovarian
[2] = test system: A498 renal
[3] = test system: 786-0 renal
[4] = test system: HCC-2998 colon
[5] = test system: NCI-H522 lung
[6] = test system: SF-268 CNS
[7] = test system: IGROV1 ovarian
[8] = test system: M14 melanoma
[9] = test system: SN12C renal
[10] = test system: K-562 leukemia

| Structure (SMILES) | GI50 [1] | TGI [1] | GI50 [2] | TGI [2] | GI50 [3] | TGI [3] | GI50 [4] | TGI [4] | GI50 [5] | TGI [5] | GI50 [6] | TGI [6] | GI50 [7] | TGI [7] | GI50 [8] | TGI [8] | GI50 [9] | TGI [9] | GI50 [10] | TGI [10] |
| --- | --- | --- | --- | --- | --- | --- | --- | --- | --- | --- | --- | --- | --- | --- | --- | --- | --- | --- | --- | --- |
| COc1cc2cc(Oc3ccc(NC(=O)Nc4cc(C(F)(F)F)cc(C(F)(F)F)c4)cc3)c(C)nc2cc1OCCN1CCCCC1 | 1870 nM | 3.72 µM | 1750 nM | 3.23 µM | 1710 nM | 3.25 µM | 1780 nM | 3.29 µM | 1720 nM | 3.46 µM | 1690 nM | 3.37 µM | 1350 nM | 2.79 µM | 1680 nM | 3.16 µM | 1680 nM | 3.22 µM | 1500 nM | 3.31 µM |
| O=C(CN1CCN(c2cc3c(cc2F)c(=O)c(C(=O)O)cn3C2CC2)CC1)Nc1ccc(C(=O)/C=C/c2ccccc2)cc1 | 3070 nM | > 100 µM | 1280 nM | 7.37 µM | 4500 nM | > 100 µM | 39600 nM | > 100 µM | 1700 nM | 7.78 µM | 4130 nM | > 100 µM | 3670 nM | > 100 µM | 5220 nM | > 100 µM | 3020 nM | > 100 µM | 3070 nM | > 100 µM |
| O=C1/C(=C/c2ccc(Cl)cc2)COc2ccc(Br)cc21 | – | > 100 µM | – | > 100 µM | – | > 100 µM | – | > 100 µM | – | > 100 µM | – | > 100 µM | – | > 100 µM | – | – | – | – | – | > 100 µM |
| O=C(N/N=C\c1cc(Br)cc(Br)c1O)N/N=C/c1cc(Br)cc(Br)c1O | 2880 nM | 16.7 µM | 7810 nM | 22.8 µM | 10100 nM | 23.1 µM | 13400 nM | 32.5 µM | 3080 nM | 13.8 µM | 1470 nM | 12 µM | – | – | 4290 nM | 19 µM | 4560 nM | 17.8 µM | 700 nM | 14.3 µM |
| c1cc[c]([Sn]([O]c2cccc3cccnc23)([c]2ccccc2)[c]2ccccc2)cc1 | 18.4 nM | 0.0336 µM | – | – | 15 nM | 0.029 µM | 23.6 nM | 0.0625 µM | < 10 nM | – | 12.8 nM | 0.0275 µM | 19.6 nM | 0.0428 µM | 16.6 nM | 0.0319 µM | 15.1 nM | 0.0293 µM | < 10 nM | 0.0521 µM |
| COc1cc2ccc(C(=O)O)cc2cc1OC | – | > 100 µM | – | > 100 µM | – | > 100 µM | – | – | – | > 100 µM | – | > 100 µM | – | > 100 µM | – | > 100 µM | – | > 100 µM | – | > 100 µM |
| CC(C)=CCCC1(C)C=Cc2c(ccc3c2[nH]c2cc(O)c(C)cc23)O1 (stereo not given) | – | 7.49 µM | – | – | 4270 nM | 7.87 µM | 4630 nM | 8.86 µM | 3870 nM | 7.2 µM | 5060 nM | 10.2 µM | – | > 2.5 µM | 3920 nM | 7.44 µM | 4630 nM | 8.24 µM | 5640 nM | 15.6 µM |
| O=C1/C(=C/c2ccccc2)CN(C(=O)Oc2ccccc2)C/C1=C\c1ccccc1 | – | > 100 µM | – | > 100 µM | – | 49.1 µM | – | – | – | > 100 µM | – | > 100 µM | – | 83.2 µM | – | > 100 µM | – | > 100 µM | – | 22.1 µM |
| CCc1cc2c(c3[nH]ccc13)[C@@H](C)C[C@H]2C | – | 41.1 µM | – | 30.2 µM | – | 28.2 µM | – | 38.3 µM | – | 31.9 µM | – | – | – | 36.2 µM | – | 34.4 µM | – | 29.8 µM | – | 45 µM |
| S=C1NC2=C(CCOc3c2ccc2ccccc32)C(c2ccc(Cl)cc2)N1 (stereo not given) | 44700 nM | > 100 µM | 26200 nM | 68 µM | 50500 nM | > 100 µM | – | – | 25100 nM | > 100 µM | 39200 nM | > 100 µM | 52800 nM | > 100 µM | 54300 nM | > 100 µM | 25800 nM | 66 µM | 42900 nM | > 100 µM |
| CCC[CH2][Sn]1([CH2]CCC)[O]N=Cc2ccccc2[O]1 | 890 nM | 2.12 µM | 1430 nM | 2.8 µM | 608 nM | 1.89 µM | 1320 nM | 2.83 µM | 102 nM | 0.229 µM | – | – | 1030 nM | 2.25 µM | 780 nM | 2.09 µM | 1270 nM | 2.54 µM | 192 nM | 1.33 µM |
| C/C(=N/OCCC(=O)O)C1CC1 | – | > 100 µM | – | – | – | > 100 µM | – | > 100 µM | – | > 100 µM | – | > 100 µM | – | > 100 µM | – | > 100 µM | – | > 100 µM | – | > 100 µM |
| Cc1ccc(S(=O)(=O)N/N=C/CN2C(=O)c3ccccc3C2=O)cc1 | – | > 100 µM | – | > 100 µM | – | > 100 µM | – | > 100 µM | – | > 100 µM | – | – | – | > 100 µM | – | > 100 µM | – | > 100 µM | – | > 100 µM |
| O=C(O)CSc1nnc(COc2ccccc2)n1-c1ccccc1 | – | > 100 µM | – | > 100 µM | – | > 100 µM | – | > 100 µM | – | > 100 µM | – | > 100 µM | – | > 100 µM | – | > 100 µM | – | > 100 µM | – | – |
| CC(C)C(NCc1c2ccccc2nc2ccccc12)C(=O)O (stereo not given) | – | > 100 µM | – | – | – | > 100 µM | – | > 100 µM | – | 91.2 µM | – | > 100 µM | – | > 100 µM | – | > 100 µM | – | > 100 µM | – | > 100 µM |
| N#CCCCCCn1c2ccccc2c2c3c(c4c5ccccc5[nH]c4c21)C(=O)N(O)C3=O | – | – | 1720 nM | 4.94 µM | 1640 nM | 3.23 µM | 1820 nM | 6.06 µM | 164 nM | 0.411 µM | 957 nM | 48.1 µM | 1120 nM | 3.89 µM | 595 nM | 2.51 µM | 1290 nM | 4.92 µM | 1070 nM | > 100 µM |
| CCC(C)Cn1c(C)nc2c1C(=O)c1ccccc1C2=O (stereo not given) | – | > 100 µM | – | – | – | 75.4 µM | – | > 100 µM | – | > 100 µM | – | > 100 µM | – | > 100 µM | – | > 100 µM | – | > 100 µM | – | > 100 µM |
